This is an account of results in US20250222028A1, “ENGINEERED IMMUNE CELL PLATFORM” (Cancer Research Technology Limited, priority 2022, published 2025).

In one experiment the test system is Gli1. As to the kind of experiment: Gli1 expression by qRT-PCR in anti-CD3ε-stimulated murine CD8+ CTLs. In kind it is cell-based. On the procedure: FIG. 1. L-type Cav channel agonists increase Gli1 expression and enhance specific cell killing by murine CD8+ CTLs. CD8^+ T cells were isolated from the spleen and inguinal lymph nodes of Rag2^−/− OT-I mice, and CTLs were generated. (A) Cells were restimulated on day 9/10 for 3 hours using plate-bound anti-CD3ε in the presence of indicated concentrations of FPL 64176 or carrier control. RNA was extracted and Gli1 expression was assessed by qRT-PCR. Data is n=3 independent experiments. us=unstimulated cells. (B) An LDH cytotoxicity assay was performed using OT-I CTLs. On day 7, CTLs were co-cultured with Ova peptide-pulsed EL-4 cells in the presence of 10 μM FPL 64176 (squares) or carrier control (circles). Data is n=4 independent experiments. (C) Updated experiment of (A). Data is now n=4 independent experiments. Data is normalised to Tbp as a reference gene. 0h=unstimulated cells. (D) Same data as (B) represented differently. […] Error bars indicate SD. p values were calculated using an unpaired two-tailed Student's t test (C) or a two-way ANOVA (B/D). * indicates p<0.05, ** indicates p<0.01, **** indicates p<0.0001.
FIG. 2. FPL 64176 but not (R)-Baclofen nor Nefiracetam enhance Gli1 expression in murine CD8+ CTLs. Naïve CD8^+ T cells were isolated from the spleens of OT-I Rag2^−/− mice and CTLs were generated. Cells were restimulated using an anti-CD3ε mAb in the presence indicated concentrations of (A) FPL 64176, (B) (R)-Baclofen or (C) Nefiracetam (or carrier control). CTLs were pre-incubated with the relevant pharmacological agents for 40-50 mins prior to stimulation (ensuring sufficient time for the agents, e.g., FPL 64176, to enter the cell. Gli1 expression was assessed by qRT-PCR. Data is n=2 independent experiments. Error bars indicate SD.
To investigate a potential role for L-type Cav channel agonists in modulating CD8+ CTL activation and effector function, CD8+ T cells were isolated from the spleen and inguinal lymph nodes of Rag2−/− OT-I mice and CTLs were generated. […] OT-I mice bear a transgene encoding for a TCR that recognises a chicken ovalbumin (Ova) peptide fragment. Rag2−/− OT-I mice facilitate the isolation of naïve CD8+ T cell populations. Plates were coated using 2.5 μg/mL anti-CD3ε mAb and CD8+ CTLs were stimulated for 3 hours via the TCR in the presence of 5 or 10 μM FPL 64176, an L-type Cav channel agonist, or carrier control. Note that CD8+ CTLs were pre-incubated with FPL 64176 or carrier control for 40-50 mins before stimulation. Gli1 expression was assessed using qRT-PCR.
In brief, naïve CD8+ T cells were isolated from the spleen and inguinal lymph nodes of C57BL/6 wildtype mice and CTLs were generated. […] RNA was extracted from cells and Gli1 expression was assessed by qRT-PCR. […]
(In qPCR the cycle at which signal appears reflects the starting amount.)

In the next experiment the test system is K562 target cells. As to the kind of experiment: Flow-cytometry based killing assay, human Vγ9Vδ2 gammadelta T cells with K562 target cells. The note with it: 10 μM, killing assessed after 24 hours, vs EtOH carrier control. In kind it is cell-based. On the procedure: FIG. 12. GLI1 is important for tumour cell killing of human Vγ9Vδ2 gammadelta T cells and treatment with L-type voltage gated Ca2+ channel agonist FPL 64176 increases killing capacity. PBMCs were isolated from Buffy Coats of healthy donors using SepMate PBMC Isolation Tubes. Vγ9Vδ2 expansion was induced by plating PBMCs at 1×10^6 concentration with 1 μM of Zoledronate in the presence of 100 IU/mL IL-2 and 120 IU/mL IL-15. Cells were split every 2-3 days from day 6 until day 20. Killing assays were conducted between day 16-20. (A) Vγ9Vδ2 T lymphocytes were incubated with Gli1/2 inhibitor GANT61 or EToH (carrier control) overnight and subsequently co-cultured with K562 target cells for 24 h at the indicated effector to target ratios and subjected to a flow-cytometry based killing assay. n=1 individual donor. (B) Vγ9Vδ2 cells were pre-incubated with 10 μM FPL 64176 or EToH (carrier control) before being co-cultured with K562 target cells at indicated effector to target ratios and subjected to a flowcytometric cytotoxicity assay in the presence of 10 μM FPL 64176 or EToH (carrier control). Killing was assessed after 24 hours. Tumour cell killing normalised to carrier treated cells at a 10:1 effector:target ratio. n=4 individual healthy donors from 2 independent experiments. […]

As to `COC(=O)c1c(C)[nH]c(C)c1C(=O)c1ccccc1Cc1ccccc1` [FPL 64176], the “Gli1 expression following TCR activation” value in the experiment with Gli1 (anti-CD3ε restimulation 6 hours, indicated concentrations, vs carrier control (FIG. 2)) is listed as “successfully enhances”. The Gli1 expression result in the experiment on Gli1 (anti-CD3ε stimulation 3 hours, 5 or 10 μM, pre-incubation 40-50 mins, vs carrier control) was “dose-dependent increase”. Also, the “killing by gammadelta T cells” value in the experiment on K562 target cells is “increased killing”.
